Measured values as given in ChEMBL document CHEMBL1132830, “Serotonin transporter inhibitors: synthesis and binding potency of 2'-methyl- and 3'-methyl-6-nitroquipazine” (Bioorg Med Chem Lett, 2000).

Columns and labels:
[1] = biological target: Sodium-dependent serotonin transporter (Rattus norvegicus, UniProt P31652); experiment: In vitro radioligand [3H]-paroxetine from rat cortical Serotonin transporter
[2] = Equipotent molar ratio of compound to that of standard (compound 1) was evaluated

Sodium-dependent serotonin transporter, sequence (P31652 whole entry): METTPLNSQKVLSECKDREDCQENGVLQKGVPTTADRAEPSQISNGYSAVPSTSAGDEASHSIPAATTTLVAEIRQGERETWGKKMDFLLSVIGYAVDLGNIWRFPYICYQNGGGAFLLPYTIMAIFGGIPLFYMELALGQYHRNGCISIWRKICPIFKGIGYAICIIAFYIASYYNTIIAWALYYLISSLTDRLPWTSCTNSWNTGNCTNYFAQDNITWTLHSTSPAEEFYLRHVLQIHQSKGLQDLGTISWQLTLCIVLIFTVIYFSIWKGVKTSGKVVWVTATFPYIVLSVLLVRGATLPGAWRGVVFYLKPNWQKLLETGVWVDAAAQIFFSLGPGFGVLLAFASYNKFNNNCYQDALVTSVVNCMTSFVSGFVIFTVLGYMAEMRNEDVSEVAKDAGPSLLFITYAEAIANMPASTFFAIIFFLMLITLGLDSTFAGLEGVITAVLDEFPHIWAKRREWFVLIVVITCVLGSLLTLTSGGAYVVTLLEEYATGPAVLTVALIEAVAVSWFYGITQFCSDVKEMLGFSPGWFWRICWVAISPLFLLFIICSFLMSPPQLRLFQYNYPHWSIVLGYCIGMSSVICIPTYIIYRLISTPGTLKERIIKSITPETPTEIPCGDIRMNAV

| SMILES | Ki [1] | Ratio [2] |
| --- | --- | --- |
| O=[N+]([O-])c1ccc2nc(N3CCNCC3)ccc2c1I | 0.19 nM |  |
| CC1CNCCN1c1ccc2cc([N+](=O)[O-])ccc2n1 (configuration not stated) | 0.081 nM | 0.49 |
| CC1CN(c2ccc3cc([N+](=O)[O-])ccc3n2)CCN1 (configuration not stated) | 4.56 nM | 28 |
| O=[N+]([O-])c1ccc2nc(N3CCNCC3)ccc2c1 [6-NITROQUIPAZINE] | 0.163 nM | 1 |
